US10221426B2, “Constitutively active PYR/PYL receptor proteins for improving plant stress tolerance” (The Regents of the University of California, priority 2009, dated 2019)

How the values were obtained:
[1] = target: T1, HAB1 in the presence of PYL4 (Arabidopsis thaliana, UniProt O80920); assay: PP2C phosphatase assay (pNPP), GST-HAB1 in the presence of PYL4; assay type: biochemical; details: recombinant PYL4 refolded from inclusion bodies
T1 construct: vector pHB3; made in house
T1 sequence (O80920 1-207): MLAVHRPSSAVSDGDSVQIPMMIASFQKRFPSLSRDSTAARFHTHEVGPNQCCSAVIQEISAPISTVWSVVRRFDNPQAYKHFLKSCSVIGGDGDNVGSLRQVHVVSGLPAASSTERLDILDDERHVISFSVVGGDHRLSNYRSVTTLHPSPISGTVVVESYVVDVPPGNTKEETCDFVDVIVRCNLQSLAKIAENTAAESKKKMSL
T1 sequence (Q9CAJ0 23-511 partner): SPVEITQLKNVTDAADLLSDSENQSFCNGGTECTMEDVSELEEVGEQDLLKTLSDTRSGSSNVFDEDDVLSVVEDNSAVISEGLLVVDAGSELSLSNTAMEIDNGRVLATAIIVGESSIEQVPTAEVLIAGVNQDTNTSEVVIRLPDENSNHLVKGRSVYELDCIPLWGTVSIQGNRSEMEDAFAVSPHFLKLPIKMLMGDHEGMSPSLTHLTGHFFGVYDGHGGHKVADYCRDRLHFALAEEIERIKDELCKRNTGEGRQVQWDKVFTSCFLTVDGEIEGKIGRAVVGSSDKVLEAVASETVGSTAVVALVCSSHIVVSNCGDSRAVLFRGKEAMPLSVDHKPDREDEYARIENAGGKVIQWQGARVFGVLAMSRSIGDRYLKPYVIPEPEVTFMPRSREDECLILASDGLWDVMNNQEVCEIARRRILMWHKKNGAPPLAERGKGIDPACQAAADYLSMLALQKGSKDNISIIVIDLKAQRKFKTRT

Arabidopsis seeds = assay: Seed germination inhibition; assay type: in vivo; details: for amount required to ensure 100% inhibition of germination: scored 3 days post-imbibition, dose curve analyses
Method: FIG. 1. Pyrabactin is a seed selective ABA agonist. (A) Structures of molecules described in this study. (B) Pyrabactin activity is suppressed by abi1-1. Seeds of the genotype shown at top were imbibed on media containing 25 μM pyrabactin and scored for germination 4 days after stratification. Shown at bottom are IC50 values for pyrabactin's germination effect on the genotypes characterized. (C) Microarray comparison of pyrabactin and ABA treatments in seeds. The Y-axis plots the log2 transformed value for a probe's response to 25 μM pyrabactin (relative to untreated control) and the X-axis a probe's response to 1 μM ABA. […] (D) Microarray comparison of cycloheximide and ABA responses in seeds. […] (E) Microarray comparison of pyrabactin and ABA responses in seedlings. Seven-day old seedlings were transferred to 10 μM ABA or 50 μM pyrabactin containing plates for 24 hours and then mRNA samples profiled. Inset in each scatter plot is the Pearson correlation coefficient for each comparison. Detailed microarray methods are described in the Examples section.
FIG. 2. PYR1 encodes an ABA responsive START-domain protein. (A) Pyr1 alleles. Shown are the allele names, strain names (in parentheses) and amino acid changes caused by the Pyr1 mutant alleles identified by screening for pyrabactin resistant mutations. (B) Pictographic representation of Pyr1 and Pyl1-Pyl4 expression values housed in public microarray databases. The heatmap shown at top right is for the first upper three panels and the bottom heatmap for the guard cell data. Plots were made using the eFP browser (D. Winter et al., PLoS ONE 2, e718 (2007)). (C) 35S::GFP-PYR1 complements pyr1-1. Seeds of the genotypes shown were stratified 4 days on 25 μM pyrabactin and then germinated at RT, 90% RH for 3 days in darkness. […] (D) Pyr/Pyls are required for normal ABA-induced gene expression in seedlings. Shown are qRT-PCR results for the ABA-responsive gene RD29. L, Ler; C, Col; and Q, quadruple mutant. (E) Pyr/Pyl genes are required for normal ABA-induced stress-induced gene expression in seedlings. Shown are qRT-PCR results for two ABA-responsive taqman probes, as described in the Examples section. L=Ler, C=Col, Q=quadruple mutant.
As part of an earlier effort, we identified a germination inhibitor named pyrabactin (Y. Zhao et al., Nat Chem Biol 3, 716 (2007)). […] To test this hypothesis, we examined the pyrabactin sensitivity of mutant lines with altered ABA signaling, biosynthesis or gibberellic acid (GA) perception.
We next performed microarray experiments to evaluate the similarity of the transcriptional responses induced by ABA and pyrabactin treatments. For microarray, tissue was prepared and RNA extracted from Columbia wild type seeds sown on 0.5×MS media (˜2500 seeds per 150 mm plate) containing either 1 μM ABA, 25 μM pyrabactin, 25 μM 2,4-Dinitrophenol (DNP), 1 μM cycloheximide, 2 μM methotrexate or 1% DMSO control plates (all chemicals are dissolved in DMSO). The concentrations utilized for these experiments were normalized for germination inhibition activity by dose curve analyses, i.e. the amount of both compounds required to ensure 100% inhibition of germination when scored 3 days post-imbibition. ABA (±stereoisomers), DNP, cycloheximide and methotrexate were purchased from Sigma Aldrich. Seeds were stratified for 4 days and then incubated in the dark at room temperature for 24 hours. […]

Compound	inhibition of HAB1 phosphatase activity in the presence of PYL4 [1]	amount required to ensure 100% inhibition of germination (Arabidopsis seeds) [µM]	effect on germination (Arabidopsis seeds; in vivo)	germination of Columbia wild type seeds (Arabidopsis seeds; stratified 4 days on 25 μM pyrabactin, germinated at RT, 90% RH for 3 days in darkness)
CC1=CC(=O)CC(C)(C)C1(O)/C=C/C(C)=C\C(=O)O (single isomer, unassigned; (+)) [(+)-ABA]	inhibits HAB1 phosphatase activity			
CC1=CC(=O)CC(C)(C)[C@@]1(O)/C=C/C(C)=C\C(=O)O [ABA, Abscisic acid]	saturable inhibition	1		
O=S(=O)(NCc1ccccn1)c1ccc(Br)c2ccccc12 [pyrabactin]		25	inhibits germination	unable to germinate
